Measured values from PubChem BioAssay (NCI).
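Step 1: Grow cells in 96-well plates. Step 2: Expose to compound for 48 hours at 5 concentrations. Step 3: Interpolate endpoints linearly; if unreached, use highest concentration. GI50 = concentration required for 50% inhibition of growth. TGI denotes the concentration required for complete inhibition of growth.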

How the values were obtained:
Assay in all cases: growth of human tumour cells (NCI), 48 h
U251 CNS = tested on: U251 CNS
NCI-H23 lung = tested on: NCI-H23 lung
MALME-3M melanoma = tested on: MALME-3M melanoma
SK-MEL-2 melanoma = tested on: SK-MEL-2 melanoma
A549 NSCLC = tested on: A549 NSCLC
ACHN renal = tested on: ACHN renal
SW-620 colon = tested on: SW-620 colon
IGROV1 ovarian = tested on: IGROV1 ovarian
T-47D breast = tested on: T-47D breast
HCT-15 colon = tested on: HCT-15 colon
MCF7 breast = tested on: MCF7 breast
UACC-62 melanoma = tested on: UACC-62 melanoma
KM12 colon = tested on: KM12 colon
CAKI-1 renal = tested on: CAKI-1 renal
LOX IMVI melanoma = tested on: LOX IMVI melanoma
M14 melanoma = tested on: M14 melanoma
SN12C renal = tested on: SN12C renal
786-0 renal = tested on: 786-0 renal
NCI/ADR-RES ovarian = tested on: NCI/ADR-RES ovarian
UO-31 renal = tested on: UO-31 renal
NCI-H226 lung = tested on: NCI-H226 lung
DU-145 prostate = tested on: DU-145 prostate
RPMI-8226 leukemia = tested on: RPMI-8226 leukemia
BT-549 breast = tested on: BT-549 breast
EKVX NSCLC = tested on: EKVX NSCLC
HT29 colon = tested on: HT29 colon
PC-3 prostate = tested on: PC-3 prostate
MDA-MB-435 = tested on: MDA-MB-435
SNB-19 CNS = tested on: SNB-19 CNS
CCRF-CEM leukemia = tested on: CCRF-CEM leukemia
HS 578T breast = tested on: HS 578T breast
TK-10 renal = tested on: TK-10 renal
SK-MEL-28 melanoma = tested on: SK-MEL-28 melanoma
MDA-MB-231 breast = tested on: MDA-MB-231 breast
OVCAR-5 ovarian = tested on: OVCAR-5 ovarian
HCT-116 colon = tested on: HCT-116 colon
NCI-H460 lung = tested on: NCI-H460 lung
RXF 393 renal = tested on: RXF 393 renal
HOP-62 NSCLC = tested on: HOP-62 NSCLC
SK-MEL-5 melanoma = tested on: SK-MEL-5 melanoma
SR leukemia = tested on: SR leukemia
NCI-H522 lung = tested on: NCI-H522 lung
MOLT-4 leukemia = tested on: MOLT-4 leukemia
COLO 205 colon = tested on: COLO 205 colon
SF-295 CNS = tested on: SF-295 CNS
SK-OV-3 ovarian = tested on: SK-OV-3 ovarian
K-562 leukemia = tested on: K-562 leukemia
OVCAR-4 ovarian = tested on: OVCAR-4 ovarian
OVCAR-8 ovarian = tested on: OVCAR-8 ovarian
OVCAR-3 ovarian = tested on: OVCAR-3 ovarian
SF-268 CNS = tested on: SF-268 CNS
A498 renal = tested on: A498 renal
UACC-257 melanoma = tested on: UACC-257 melanoma
HL-60(TB) leukemia = tested on: HL-60(TB) leukemia
SF-539 CNS = tested on: SF-539 CNS
HOP-92 NSCLC = tested on: HOP-92 NSCLC
SNB-75 CNS = tested on: SNB-75 CNS
HCC-2998 colon = tested on: HCC-2998 colon

## O=C1C(Cl)=C(Nc2cccc(O)c2)C(=O)N1c1cccc(Cl)c1
U251 CNS
  GI50: 57.7 µM
  TGI: > 100 µM
NCI-H23 lung
  GI50: 37.7 µM
  TGI: > 100 µM
MALME-3M melanoma
  GI50: 51.7 µM
  TGI: > 100 µM
SK-MEL-2 melanoma
  GI50: 34.7 µM
  TGI: > 100 µM
A549 NSCLC
  GI50: 81.1 µM
  TGI: > 100 µM
ACHN renal
  GI50: 85.4 µM
  TGI: > 100 µM
SW-620 colon
  GI50: 39 µM
  TGI: > 100 µM
IGROV1 ovarian
  GI50: 18.3 µM
  TGI: 51.4 µM
T-47D breast
  GI50: 67.2 µM
  TGI: > 100 µM
HCT-15 colon
  GI50: 39.1 µM
  TGI: > 100 µM
MCF7 breast
  GI50: 36 µM
  TGI: > 100 µM
UACC-62 melanoma
  GI50: 27 µM
  TGI: > 100 µM
KM12 colon
  GI50: 68.2 µM
  TGI: > 100 µM
CAKI-1 renal
  GI50: 49.9 µM
  TGI: > 100 µM
LOX IMVI melanoma
  GI50: 22.4 µM
  TGI: 51.1 µM
M14 melanoma
  GI50: 28.8 µM
  TGI: > 100 µM
SN12C renal
  GI50: 21.9 µM
  TGI: 59.8 µM
786-0 renal
  GI50: 57.8 µM
  TGI: > 100 µM
NCI/ADR-RES ovarian
  GI50: 64.1 µM
  TGI: > 100 µM
UO-31 renal
  GI50: 75.8 µM
  TGI: > 100 µM
NCI-H226 lung
  GI50: 26 µM
  TGI: 76.9 µM
DU-145 prostate
  GI50: 69.5 µM
  TGI: > 100 µM
RPMI-8226 leukemia
  GI50: 12.8 µM
  TGI: 34.3 µM
BT-549 breast
  GI50: 27.3 µM
  TGI: > 100 µM
EKVX NSCLC
  GI50: > 100 µM
  TGI: > 100 µM
HT29 colon
  GI50: 37.3 µM
  TGI: > 100 µM
PC-3 prostate
  GI50: 21.4 µM
  TGI: > 100 µM
MDA-MB-435
  GI50: 43 µM
  TGI: > 100 µM
SNB-19 CNS
  GI50: 71.5 µM
  TGI: > 100 µM
CCRF-CEM leukemia
  GI50: 10.7 µM
  TGI: 31.8 µM
HS 578T breast
  GI50: 29.3 µM
  TGI: > 100 µM
TK-10 renal
  GI50: > 100 µM
  TGI: > 100 µM
SK-MEL-28 melanoma
  GI50: 85.7 µM
  TGI: > 100 µM
MDA-MB-231 breast
  GI50: 35.8 µM
  TGI: > 100 µM
OVCAR-5 ovarian
  GI50: 62.5 µM
  TGI: > 100 µM
HCT-116 colon
  GI50: 21.7 µM
  TGI: > 100 µM
NCI-H460 lung
  GI50: 48.5 µM
  TGI: > 100 µM
RXF 393 renal
  GI50: 25.5 µM
  TGI: > 100 µM
HOP-62 NSCLC
  GI50: 52.7 µM
  TGI: > 100 µM
SK-MEL-5 melanoma
  GI50: 50.4 µM
  TGI: > 100 µM
SR leukemia
  GI50: 27 µM
  TGI: > 100 µM
NCI-H522 lung
  GI50: 16.6 µM
  TGI: 36.3 µM
MOLT-4 leukemia
  GI50: 23 µM
  TGI: 71.4 µM
COLO 205 colon
  GI50: 56.5 µM
  TGI: > 100 µM
SF-295 CNS
  GI50: 61.6 µM
  TGI: > 100 µM
SK-OV-3 ovarian
  GI50: 56.5 µM
  TGI: > 100 µM
K-562 leukemia
  GI50: 29.8 µM
  TGI: 79 µM
OVCAR-4 ovarian
  GI50: 50.6 µM
  TGI: > 100 µM
OVCAR-8 ovarian
  GI50: 27.2 µM
  TGI: > 100 µM
OVCAR-3 ovarian
  GI50: 22.3 µM
  TGI: 64.1 µM
SF-268 CNS
  GI50: 28.8 µM
  TGI: > 100 µM

## O=C(CCc1ccccc1CO)NCCc1ccccc1
U251 CNS
  TGI: > 100 µM
NCI-H23 lung
  TGI: > 100 µM
SK-MEL-2 melanoma
  TGI: > 100 µM
A549 NSCLC
  TGI: > 100 µM
ACHN renal
  TGI: > 100 µM
SW-620 colon
  TGI: > 100 µM
IGROV1 ovarian
  TGI: > 100 µM
T-47D breast
  TGI: > 100 µM
HCT-15 colon
  TGI: > 100 µM
MCF7 breast
  TGI: > 100 µM
UACC-62 melanoma
  TGI: > 100 µM
KM12 colon
  TGI: > 100 µM
CAKI-1 renal
  TGI: > 100 µM
M14 melanoma
  TGI: > 100 µM
SN12C renal
  TGI: > 100 µM
786-0 renal
  TGI: > 100 µM
A498 renal
  TGI: > 100 µM
NCI/ADR-RES ovarian
  TGI: > 100 µM
UO-31 renal
  TGI: > 100 µM
NCI-H226 lung
  TGI: > 100 µM
DU-145 prostate
  TGI: > 100 µM
RPMI-8226 leukemia
  TGI: > 100 µM
BT-549 breast
  TGI: > 100 µM
EKVX NSCLC
  TGI: > 100 µM
HT29 colon
  TGI: > 100 µM
PC-3 prostate
  TGI: > 100 µM
MDA-MB-435
  TGI: > 100 µM
SNB-19 CNS
  TGI: > 100 µM
CCRF-CEM leukemia
  TGI: > 100 µM
UACC-257 melanoma
  TGI: > 100 µM
HS 578T breast
  TGI: > 100 µM
TK-10 renal
  TGI: > 100 µM
SK-MEL-28 melanoma
  TGI: > 100 µM
HL-60(TB) leukemia
  TGI: > 100 µM
MDA-MB-231 breast
  TGI: > 100 µM
OVCAR-5 ovarian
  TGI: > 100 µM
HCT-116 colon
  TGI: > 100 µM
NCI-H460 lung
  TGI: > 100 µM
SF-539 CNS
  TGI: > 100 µM
RXF 393 renal
  TGI: > 100 µM
HOP-92 NSCLC
  TGI: > 100 µM
SNB-75 CNS
  TGI: > 100 µM
HOP-62 NSCLC
  TGI: > 100 µM
HCC-2998 colon
  TGI: > 100 µM
SK-MEL-5 melanoma
  TGI: > 100 µM
SR leukemia
  TGI: > 100 µM
NCI-H522 lung
  TGI: > 100 µM
MOLT-4 leukemia
  TGI: > 100 µM
COLO 205 colon
  TGI: > 100 µM
SF-295 CNS
  TGI: > 100 µM
SK-OV-3 ovarian
  TGI: > 100 µM
K-562 leukemia
  TGI: > 100 µM
OVCAR-4 ovarian
  TGI: > 100 µM
OVCAR-8 ovarian
  TGI: > 100 µM
OVCAR-3 ovarian
  TGI: > 100 µM
SF-268 CNS
  TGI: > 100 µM
